Measurements published in article PMC12704298, “Divergent acetyl-CoA binding modes mediate allosteric inhibition of bacterial hybrid-type malic enzymes” (The Journal of Biological Chemistry, 2025).

How the values were obtained:
EcMaeB [1] = target: T1, EcMaeB (Escherichia coli, UniProt P76558); experiment: Acetyl-CoA IC50 plot against MaeB activity (spectrophotometric NADPH assay); format: biochemical
T1 construct: His-tag (C); made in house; host or cells: E. coli BL21(DE3)
T1 sequence (P76558 1-759): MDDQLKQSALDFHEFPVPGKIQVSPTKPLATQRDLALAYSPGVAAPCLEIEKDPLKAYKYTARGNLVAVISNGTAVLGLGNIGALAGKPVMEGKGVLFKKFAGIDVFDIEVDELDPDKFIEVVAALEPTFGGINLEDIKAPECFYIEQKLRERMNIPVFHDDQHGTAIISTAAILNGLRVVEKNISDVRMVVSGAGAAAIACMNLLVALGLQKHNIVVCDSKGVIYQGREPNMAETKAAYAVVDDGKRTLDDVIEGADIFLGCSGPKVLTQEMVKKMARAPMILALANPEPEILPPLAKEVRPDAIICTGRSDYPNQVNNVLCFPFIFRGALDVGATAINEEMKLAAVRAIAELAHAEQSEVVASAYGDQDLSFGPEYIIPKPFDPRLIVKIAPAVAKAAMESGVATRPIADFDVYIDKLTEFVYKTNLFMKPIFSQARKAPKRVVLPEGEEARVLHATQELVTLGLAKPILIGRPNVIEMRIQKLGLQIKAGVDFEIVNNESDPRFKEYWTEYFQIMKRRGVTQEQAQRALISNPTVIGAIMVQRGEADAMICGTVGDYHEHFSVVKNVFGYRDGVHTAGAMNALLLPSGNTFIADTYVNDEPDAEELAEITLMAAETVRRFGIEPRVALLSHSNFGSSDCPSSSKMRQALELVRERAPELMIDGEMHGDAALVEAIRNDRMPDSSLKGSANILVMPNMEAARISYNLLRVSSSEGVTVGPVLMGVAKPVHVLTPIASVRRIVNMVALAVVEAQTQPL
Protocol: (§1) Spectrophotometric assays were used to monitor the oxidative decarboxylation of L-malate to pyruvate using a SpectraMax M2, UV-Visible spectrophotometer (Molecular Devices) operated by SoftMax Pro Software with kinetic mode. All assays recorded the Δabsorbance at 340 nm (NADPH) at 30 °C. Assays were initiated by the addition of enzyme to the otherwise complete reaction mixture. […] Acetyl-CoA was tested at 5 μM.
(§2) The IC50 plot for Acetyl-CoA against MaeB activity was obtained by varying acetyl-CoA concentrations. The assay was performed in the standard reaction condition with 100 nM final enzyme concentration. The data were fitted to the four-parameter logistic model: v0=Bottom+Top−Bottom/1+([Acetyl-CoA]/IC50)^h where h means the Hill slope value and “Top” and “Bottom” corresponds to the maximum and minimum v0 of the fitted curve, respectively ([81]). Fitting was performed using Rstudio.

BbMaeB-SSB = BbMaeB-SSB (Bdellovibrio bacteriovorus, UniProt A0A1Z3N8R4); experiment: as above; format: biochemical, Bdellovibrio bacteriovorus strain SSB218315
Protocol: as §1, §2

EcMaeB [2] = target: T1, EcMaeB; experiment: Enzyme kinetic parameters (Michaelis-Menten, substrate inhibition, empirical Hill plots); format: biochemical; settings: EcMaeB; versus malate, not conclusive
Protocol: as §1
(§3) For this substrate inhibition model, x should be fixed. […] The plots shown in Fig. S1F were fitted to the empirical Hill equation: v0=Vmax·[malate]^h/(K0.5h+[malate]^h) where K0.5 indicates the substrate concentration for half-saturation. When h is equal to 1, K0.5 matches Michaelis constant Km.

BbMaeB = target: T2, BbMaeB (Bdellovibrio bacteriovorus, UniProt A0A1Z3N8R4); experiment: as above; format: biochemical, Bdellovibrio bacteriovorus strain SSB218315; settings: versus malate
T2 sequence (A0A1Z3N8R4 1-776): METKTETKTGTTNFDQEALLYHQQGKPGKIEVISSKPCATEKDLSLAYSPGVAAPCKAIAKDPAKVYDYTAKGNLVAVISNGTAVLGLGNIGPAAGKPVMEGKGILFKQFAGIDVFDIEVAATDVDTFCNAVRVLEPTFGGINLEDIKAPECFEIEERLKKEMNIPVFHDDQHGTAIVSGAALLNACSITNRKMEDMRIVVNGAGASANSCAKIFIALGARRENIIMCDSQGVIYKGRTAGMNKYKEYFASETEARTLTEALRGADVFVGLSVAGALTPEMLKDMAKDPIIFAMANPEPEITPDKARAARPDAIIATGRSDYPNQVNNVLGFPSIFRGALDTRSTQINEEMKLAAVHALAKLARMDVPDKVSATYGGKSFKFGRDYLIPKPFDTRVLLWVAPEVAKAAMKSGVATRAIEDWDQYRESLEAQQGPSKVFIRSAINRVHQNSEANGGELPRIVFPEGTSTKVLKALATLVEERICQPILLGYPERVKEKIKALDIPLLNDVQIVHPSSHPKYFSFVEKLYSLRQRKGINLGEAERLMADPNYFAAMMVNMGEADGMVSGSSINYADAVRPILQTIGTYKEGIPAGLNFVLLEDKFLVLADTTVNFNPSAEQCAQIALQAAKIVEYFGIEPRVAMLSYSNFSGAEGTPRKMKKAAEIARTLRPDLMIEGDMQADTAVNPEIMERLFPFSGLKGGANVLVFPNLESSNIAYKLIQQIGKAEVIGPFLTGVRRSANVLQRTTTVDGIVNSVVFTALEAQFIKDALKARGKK
Protocol: as §1, §3

EcMaeB R475A/R482A/Y510A = system: T3, EcMaeB R475A/R482A/Y510A; experiment: %Activity assay with 5 μM acetyl-CoA; format: biochemical, Escherichia coli
T3 construct: His-tag (C); made in house; host or cells: E. coli BL21(DE3)
Protocol: (§4) Spectrophotometric assays were used to monitor the oxidative decarboxylation of L-malate to pyruvate using a SpectraMax M2, UV-Visible spectrophotometer (Molecular Devices) operated by SoftMax Pro Software with kinetic mode. All assays recorded the Δabsorbance at 340 nm (NADPH) at 30 °C. Assays were initiated by the addition of enzyme to the otherwise complete reaction mixture. […] Acetyl-CoA was tested at 5 μM. The results are presented as “%Activity”: a percentage of the measured activity in the presence of effector compared to the measured activity of MaeB under standard reaction conditions.

EcMaeB R475A/R482A = system: T4, EcMaeB R475A/R482A; experiment: %Activity assay with 5 μM acetyl-CoA; format: biochemical, Escherichia coli
T4 construct: His-tag (C); made in house; host or cells: E. coli BL21(DE3)
Protocol: as §4

EcMaeB R475A/Y510A = system: T5, EcMaeB R475A/Y510A; experiment: %Activity assay with 5 μM acetyl-CoA; format: biochemical, Escherichia coli
T5 construct: His-tag (C); made in house; host or cells: E. coli BL21(DE3)
Protocol: as §4

EcMaeB R475A = system: T6, EcMaeB R475A; experiment: %Activity assay with 5 μM acetyl-CoA; format: biochemical, Escherichia coli
T6 construct: His-tag (C); made in house; host or cells: E. coli BL21(DE3)
Protocol: as §4

EcMaeB R482A/Y510A = system: T7, EcMaeB R482A/Y510A; experiment: %Activity assay with 5 μM acetyl-CoA; format: biochemical, Escherichia coli
T7 construct: His-tag (C); made in house; host or cells: E. coli BL21(DE3)
Protocol: as §4

EcMaeB R482A = system: T8, EcMaeB R482A; experiment: %Activity assay with 5 μM acetyl-CoA; format: biochemical, Escherichia coli
T8 construct: His-tag (C); made in house; host or cells: E. coli BL21(DE3)
Protocol: as §4

EcMaeB WT = system: T9, EcMaeB WT; experiment: %Activity assay with 5 μM acetyl-CoA; format: biochemical, Escherichia coli
T9 construct: His-tag (C); made in house; host or cells: E. coli BL21(DE3)
Protocol: as §4

EcMaeB Y510A = system: T10, EcMaeB Y510A; experiment: %Activity assay with 5 μM acetyl-CoA; format: biochemical, Escherichia coli
T10 construct: His-tag (C); made in house; host or cells: E. coli BL21(DE3)
Protocol: as §4

BbMaeB-HD = system: BbMaeB-HD; parameters: method as in PMID 33623032; settings: earlier study; cited from earlier work
DME = system: DME; parameters: method as in PMID 10407149; settings: cited from earlier work
TME = system: TME; parameters: method as in PMID 10407149; settings: cited from earlier work
AbMaeB1 = system: AbMaeB1; parameters: method as in PMID 32485238; settings: AbMaeB1, compared to EcMaeB and BbMaeB; cited from earlier work
[3] = 5 mM L-malate, 0.5 mM NADP+, 1 μM enzyme
[4] = relative to WT without acetyl-CoA

Q: Which results are given for `CC(=O)SCCNC(=O)CCNC(=O)[C@H](O)C(C)(C)COP(=O)(O)OP(=O)(O)OC[C@H]1O[C@@H](n2cnc3c(N)ncnc32)[C@H](O)[C@@H]1OP(=O)(O)O` [acetyl-CoA, acetyl coenzyme A]?
A: Hill slope factor derived from the IC50 curve (EcMaeB [1]): greater than one; IC50 (EcMaeB [1]; 5 mM L-malate, 0.5 mM NADP+, 5 mM MgCl2, 100 nM enzyme, 30 °C): 102000 ± 4920 nM; Hill slope factor derived from the IC50 curve (BbMaeB-SSB; BbMaeB): greater than one; IC50 (BbMaeB-SSB; BbMaeB-SSB, 5 mM L-malate, 0.5 mM NADP+, 5 mM MgCl2, 100 nM enzyme, 30 °C): 131 ± 4 nM; mode of inhibition (EcMaeB [2]): may follow a non-competitive mode; mode of inhibition (BbMaeB): non-competitive; effect of acetyl-CoA on activity (EcMaeB R475A/R482A/Y510A): did not change their activity; NADP^+ production, With Acetyl-CoA (EcMaeB R475A/R482A/Y510A; [3]): 10.3 ± 0.4 µM/min; Activity (%), With Acetyl-CoA (EcMaeB R475A/R482A/Y510A; [4]): 39.5 ± 1.4%; effect of acetyl-CoA on activity (EcMaeB R475A/R482A): did not change their activity; NADP^+ production, With Acetyl-CoA (EcMaeB R475A/R482A; [3]): 10.7 ± 0.5 µM/min; Activity (%), With Acetyl-CoA (EcMaeB R475A/R482A; [4]): 40.8 ± 2.0%; NADP^+ production, With Acetyl-CoA (EcMaeB R475A/Y510A; [3]): 31.9 ± 2.0 µM/min; Activity (%), With Acetyl-CoA (EcMaeB R475A/Y510A; [4]): 121.9 ± 7.6%; effect of acetyl-CoA on activity (EcMaeB R475A): insensitive to allosteric inhibition; NADP^+ production, With Acetyl-CoA (EcMaeB R475A; [3]): 21.6 ± 3.7 µM/min; Activity (%), With Acetyl-CoA (EcMaeB R475A; [4]): 82.4 ± 14.0%; effect of acetyl-CoA on activity (EcMaeB R482A/Y510A): did not change their activity; NADP^+ production, With Acetyl-CoA (EcMaeB R482A/Y510A; [3]): 7.0 ± 0.1 µM/min; Activity (%), With Acetyl-CoA (EcMaeB R482A/Y510A; [4]): 26.7 ± 0.5%; effect of acetyl-CoA on activity (EcMaeB R482A): did not change their activity; NADP^+ production, With Acetyl-CoA (EcMaeB R482A; [3]): 8.4 ± 1.4 µM/min; Activity (%), With Acetyl-CoA (EcMaeB R482A; [4]): 32.3 ± 5.5%; effect of acetyl-CoA on activity (EcMaeB WT): reduced the activity by about half; NADP^+ production, With Acetyl-CoA (EcMaeB WT; [3]): 12.1 ± 2.2 µM/min; Activity (%), With Acetyl-CoA (EcMaeB WT; [4]): 46.4 ± 8.5%; effect of acetyl-CoA on activity (EcMaeB Y510A): insensitive to allosteric inhibition; NADP^+ production, With Acetyl-CoA (EcMaeB Y510A; [3]): 19.4 ± 4.0 µM/min; Activity (%), With Acetyl-CoA (EcMaeB Y510A; [4]): 74.0 ± 15.4%; IC50 (BbMaeB-HD): 453 ± 19 nM; effect on DME activity (DME): inhibited; allosteric regulation of TME (TME): does not show any allosteric regulation; allosteric inhibition of AbMaeB1 (AbMaeB1): requires higher concentrated acetyl-CoA to show allosteric inhibition
